{"source": "patent US20230173071A1", "about": "“TREATMENT OF MYOPIA AND OTHER OCULAR CONDITIONS USING SINGLET OXYGEN GENERATED FROM DYES ACTIVATED BY NEAR-INFRARED LIGHT” (California Institute of Technology, priority 2018, published 2023)", "key": {"[1]": {"assay": "Singlet oxygen generation by DPBF decay (UV-Vis), 810 nm LED", "type": "physicochemical", "text": "To evaluate the efficiency of singlet oxygen generation by ICG and an analog (IR-820) in vitro, the singlet oxygen generation was monitored. 1,3-diphenylisobenzofuran (DPBF), a compound that decays in the presence of singlet oxygen, and singlet oxygen sensor green (SOSG), a dye that increases fluorescence in the presence of singlet oxygen, were used as markers to indicate singlet oxygen generation by ICG and IR-820. […] For SOSG analysis, the fluorescence turn-on in H2O and D2O was compared to that observed when riboflavin—an FDA approved dye used in conjunction with UV light to treat keratoconus (corneal expansion)—was usedIn all cases, an increase in fluorescence emission at 525 nm was observed (using a 488nm excitation)."}, "[2]": {"assay": "Dye solubility observations", "type": "physicochemical", "details": "counterion exchanged from BF4- to BarF-", "protocol": "ICG is a NIR-absorbing heptamethine dye that has the potential of generating singlet oxygen upon irradiation and has a λmax ranging from 780-810 nm depending on the context. […] BAC along with other cationic surfactants (alkyl ammonium salts, polyoxyethylene alkyl amines, amide linked alkyl amines, alkyl imidazolines, etc.) aid in the solubility of the dye in aqueous media. […] The standard formulation used in these studies consisted of 0.05 to 5.0 mg/mL ICG and 0.01% to 0.001% BAC in solution. D2O was selected as the solvent to increase the lifetime of singlet oxygen and therefore the crosslinking capability of the species. […] Fluorinated solvents (perfluorohexane, perfluorotripentylamine, etc.) are also of interest due to their ability to dissolve more oxygen and their robust inertness."}, "[3]": {"assay": "Irradiation of IR-1061 dyes with DPBF, 980 nm or 1064 nm laser", "type": "physicochemical", "details": "for DPBF signal relative to a dark control: 30 minutes of irradiation, 1 W cm^-2 980 nm laser", "protocol": "Initial work was done using a set of IR-1061 derivatives: cited herein as IR-1061-pyridine and IR-1061-pyridinium.\nLike IR-1061-pyridinium, IR-1061-acridinium was irradiated in CDCl3 in the presence of DPBF using a 1 W cm^−2 980 nm laser (FIG. 15(A)). As a comparison, a similar irradiation was carried out using a 1.8 W cm^−2 1064 nm laser (FIG. 16). The collective effect of irradiation wavelength and conditions are seen in FIGS. 15(A-C), and FIGS. 16-18."}, "[4]": {"assay": "Dye stability observations", "protocol": "Unfortunately, IR-1061-pyridinium was unatable in the presence of water. In an attempt to overcome the susceptibility of IR-1061-pyridinium to hydration, the pyridine charge-transfer partner was exchanged for acridine, which was expected to shield the dye from water addition due to its additional bulk.\nTo confirm that the process was singlet oxygen-mediated, irradiation of a freeze-pump-thawed sample—devoid of oxygen—was carried out. […] To evaluate the scope of the reaction, the dye was irradiated in an array of deuterated solvents."}, "[5]": {"assay": "Irradiation of IR-1061 dyes with DPBF, 980 nm or 1064 nm laser", "type": "physicochemical"}, "porcine sclera": {"test_system": "porcine sclera", "details": "treated with UV light and riboflavin; previous work; cited from earlier work"}, "[6]": {"assay": "Singlet oxygen sensor green (SOSG) fluorescence measurements", "type": "physicochemical", "details": "dye 0.1 mg/mL; 3 mW at 365 nm; 488 nm excitation", "protocol": "Singlet oxygen sensor green (SOSG) is a common reagent for measuring singlet oxygen generation in aqueous systems. The marker becomes more fluorescent as singlet oxygen is generated. All time measurements were done in triplicate (100 μL aliquots from an irradiated sample). A Molecular Devices Flexstation was used to read out the fluorescence measurements with the excitation/emission at 488/525 nm.\nSOSG fluorescence turn on was initially measured using riboflavin as a point of comparison for the efficacy of ICG irradiations. Measurements used a dye concentration of 0.1 mg/mL and the irradiation the parameters (3 mW at 365 nm) used in the FDA approved procedure for keratoconus (corneal expansion). The mixture was stirred during irradiation.\nStocks of the ICG formulations (both H2O and D2O) were made to be 1 mg/mL ICG and 0.01% benzalkonium chloride (BAC). These were diluted to a dye concentration of 0.1 mg/mL for the SOSG tests with no adjustments for the BAC. The sample was irradiated with 810 nm light at 200 mW and stirred throughout the irradiation."}, "[7]": {"details": "deuterated polar aprotic solvents, such as DMSO"}, "[8]": {"details": "water (D2O with 7.5% DMSO-D6), 980 nm"}}, "note": "Entries after “also recorded” stand apart in the source; their conditions may differ."}
{"smiles": "CC1(C)C(=CC=C2CCCC(C=CC3=[N+](CCCCS(=O)(=O)[O-])c4ccc5ccccc5c4C3(C)C)=C2Cl)N(CCCCS(=O)(=O)[O-])c2ccc3ccccc3c21.[Na+]", "note": "[IR-820]", "values": [{"measurement": "DPBF decay / singlet oxygen generation in D2O compared to H2O", "setting": "[1]; 810 nm LED", "value": "increase; also recorded: faster decay rate"}, {"measurement": "DPBF signal decay when irradiated", "setting": "[1]; D2O, 810 nm LED", "value": "marked increase in the signal decay"}, {"measurement": "DPBF signal decay when irradiated", "setting": "[1]; H2O, 810 nm LED", "value": "marked increase in the signal decay"}, {"measurement": "singlet oxygen generation (DPBF analysis)", "setting": "[1]; in H2O or D2O", "value": "singlet oxygen generation was observed"}]}
{"smiles": "C(/C=C1\\CCCC(/C=C/c2cc(-c3ccccc3)[s+]c(-c3ccccc3)c2)=C1[n+]1c2ccccc2cc2ccccc21)=C1C=C(c2ccccc2)SC(c2ccccc2)=C1", "note": "[IR-1061-Acridinium BArF]", "values": [{"measurement": "solubility", "setting": "[2]", "value": "increase"}, {"measurement": "photosensitization capability", "setting": "[3]; counterion exchanged from BF4- to BarF-", "value": "marked decrease"}]}
{"smiles": "C(/C=C1\\CCCC(/C=C/c2cc(-c3ccccc3)[s+]c(-c3ccccc3)c2)=C1[n+]1c2ccccc2cc2ccccc21)=C1C=C(c2ccccc2)SC(c2ccccc2)=C1", "note": "[IR-1061-acridinium]", "values": [{"measurement": "stability to strong acids and bases", "setting": "[4]; prior to irradiation", "value": "dye instability and bleaching prior to irradiation"}, {"measurement": "dye and DPBF signal during irradiation", "setting": "[3]; 1064 nm in CDCl3", "value": "Rapid bleaching of both the dye and DPBF signal"}, {"measurement": "DPBF signal", "setting": "[3]; freeze-pump-thawed CDCl3 (devoid of oxygen), 980 nm", "value": "no change"}, {"measurement": "singlet oxygen generation", "setting": "[5]; deuterated nonpolar solvents, such as toluene", "value": "no singlet oxygen generation was observed"}, {"measurement": "DPBF degradation", "setting": "[5]; [7]", "value": "decreased"}, {"measurement": "photobleaching of the dye", "setting": "[5]; [7]", "value": "photobleaching"}, {"measurement": "DPBF degradation rates", "setting": "[5]; [8]", "value": "comparable to those seen in chloroform"}, {"measurement": "photobleaching of the dye", "setting": "[5]; [8]", "value": "high levels"}]}
{"smiles": "C(/C=C1\\CCCC(/C=C/c2cc(-c3ccccc3)[s+]c(-c3ccccc3)c2)=C1[n+]1ccccc1)=C1C=C(c2ccccc2)SC(c2ccccc2)=C1", "note": "[IR-1061-pyridinium]", "values": [{"measurement": "stability in the presence of water", "setting": "[4]", "value": "unatable"}, {"measurement": "DPBF signal relative to a dark control", "setting": "[3]", "value": "significant decrease"}]}
{"smiles": "ClC1=C(/C=C/c2cc(-c3ccccc3)[s+]c(-c3ccccc3)c2)CCC/C1=C\\C=C1C=C(c2ccccc2)SC(c2ccccc2)=C1", "note": "[IR-1061]", "values": [{"measurement": "DPBF signal relative to a dark control", "setting": "[3]", "value": "no significant changes"}]}
{"smiles": "Cc1cc2nc3c(=O)[nH]c(=O)nc-3n(C[C@H](O)[C@H](O)[C@H](O)CO)c2cc1C", "note": "[riboflavin]", "values": [{"measurement": "change in Young's Modulus of pig sclera", "setting": "porcine sclera", "value": "minimal change"}, {"measurement": "SOSG fluorescence emission at 525 nm", "setting": "[6]", "value": "increase"}]}
